Source: ChEMBL document CHEMBL1201862, “PubChem BioAssay data set” (2004)
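How tested: cells in 96-well plates exposed to compound for 48 hours at five concentrations. GI50 marks 50% less growth.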 Calls of active or inactive are those of the source. No stated cut-off is given here; in the data, active = GI50 up to about 1.1 µM and inactive = higher.

What was measured:
Experiment in all cases: NCI-60 cell line screen, 48 h
[1] = test system: RPMI-8226
[2] = test system: SNB-19
[3] = test system: SK-MEL-5
[4] = test system: SN12C
[5] = test system: K562
[6] = test system: SNB-75
[7] = test system: ACHN
[8] = test system: TK-10
[9] = test system: U-251
[10] = test system: NCI-H522
[11] = test system: NCI-H226
[12] = test system: UO-31
[13] = test system: HL-60
[14] = test system: M14
[15] = test system: SF-295
[16] = test system: OVCAR-5
[17] = test system: HCC 2998
[18] = test system: OVCAR-4
[19] = test system: A549
[20] = test system: MCF7

SMILES	GI50 [1]	GI50 [2]	GI50 [3]	GI50 [4]	GI50 [5]	GI50 [6]	GI50 [7]	GI50 [8]	GI50 [9]	GI50 [10]	GI50 [11]	GI50 [12]	GI50 [13]	GI50 [14]	GI50 [15]	GI50 [16]	GI50 [17]	GI50 [18]	GI50 [19]	GI50 [20]
CC1=NC(C(=O)O)Cc2c1[nH]c1ccccc21 (stereo unspecified)	> 100 µM (inactive)	> 100 µM (inactive)	> 100 µM (inactive)	> 100 µM (inactive)	> 100 µM (inactive)	> 100 µM (inactive)	> 100 µM (inactive)	> 100 µM (inactive)	> 100 µM (inactive)	> 100 µM (inactive)	> 100 µM (inactive)	> 100 µM (inactive)	> 100 µM (inactive)	> 100 µM (inactive)	> 100 µM (inactive)					
O=C1NC2(CCCCC2)C2CCCCCC12 (stereo unspecified)		> 100 µM (inactive)		> 100 µM (inactive)	> 100 µM (inactive)	> 100 µM (inactive)	> 100 µM (inactive)	> 100 µM (inactive)	> 100 µM (inactive)		> 100 µM (inactive)	> 100 µM (inactive)	> 100 µM (inactive)	> 100 µM (inactive)	> 100 µM (inactive)	> 100 µM (inactive)	> 100 µM (inactive)	> 100 µM (inactive)	> 100 µM (inactive)	
CCOC(=O)c1csc(NC(=O)CCCC#N)n1	> 100 µM (inactive)	> 100 µM (inactive)	> 100 µM (inactive)		> 100 µM (inactive)	> 100 µM (inactive)	> 100 µM (inactive)	> 100 µM (inactive)	> 100 µM (inactive)		> 100 µM (inactive)	> 100 µM (inactive)	> 100 µM (inactive)	> 100 µM (inactive)	> 100 µM (inactive)	> 100 µM (inactive)	> 100 µM (inactive)	> 100 µM (inactive)	> 100 µM (inactive)	> 100 µM (inactive)
O=C1CN(c2ccccc2)C(=O)C1C(=O)Nc1ccc(Cl)c(Cl)c1 (stereo unspecified)		4.62 µM (inactive)	1.36 µM (inactive)	4.73 µM (inactive)	0.604 µM (active)	0.973 µM (active)	4 µM (inactive)	7.05 µM (inactive)	3.78 µM (inactive)	2.05 µM (inactive)		4.12 µM (inactive)	0.667 µM (active)	1.79 µM (inactive)	3.72 µM (inactive)	30.4 µM (inactive)		11.7 µM (inactive)	2.72 µM (inactive)	
CO/C(=N/N1CC1C(F)(F)F)c1ccncc1 (stereo unspecified)	> 100 µM (inactive)	> 100 µM (inactive)	> 100 µM (inactive)	> 100 µM (inactive)	> 100 µM (inactive)	> 100 µM (inactive)			> 100 µM (inactive)	> 100 µM (inactive)	> 100 µM (inactive)	46.8 µM (inactive)	> 100 µM (inactive)	> 100 µM (inactive)	> 100 µM (inactive)	> 100 µM (inactive)		> 100 µM (inactive)		> 100 µM (inactive)
Cn1c2c(c3ccccc31)CCN(CCCCN1CCCCC1)C2=O	> 100 µM (inactive)	> 100 µM (inactive)	> 100 µM (inactive)	> 100 µM (inactive)	> 100 µM (inactive)		> 100 µM (inactive)	> 100 µM (inactive)	> 100 µM (inactive)	> 100 µM (inactive)		> 100 µM (inactive)	> 100 µM (inactive)	99.1 µM (inactive)	> 100 µM (inactive)	> 100 µM (inactive)		> 100 µM (inactive)	> 100 µM (inactive)	
CC1(C)C2CCC3(OCCO3)C1C(O)C2 (stereo unspecified)	> 100 µM (inactive)	> 100 µM (inactive)	> 100 µM (inactive)		> 100 µM (inactive)	> 100 µM (inactive)	> 100 µM (inactive)	> 100 µM (inactive)	> 100 µM (inactive)	> 100 µM (inactive)	> 100 µM (inactive)	> 100 µM (inactive)	> 100 µM (inactive)	> 100 µM (inactive)	> 100 µM (inactive)	> 100 µM (inactive)	> 100 µM (inactive)	> 100 µM (inactive)	> 100 µM (inactive)	
Cc1ccc([N+](=O)[O-])cc1/N=N/C(=O)NNc1cc([N+](=O)[O-])ccc1C	30.4 µM (inactive)	41.9 µM (inactive)	17.8 µM (inactive)	> 10 µM (inactive)	19.7 µM (inactive)	21.3 µM (inactive)			32.9 µM (inactive)	15.8 µM (inactive)	> 10 µM (inactive)	23.6 µM (inactive)	48.2 µM (inactive)	18.9 µM (inactive)	17.9 µM (inactive)	51.3 µM (inactive)	23.3 µM (inactive)			26.4 µM (inactive)
COc1cc2c(cc1OC)C(Cl)C(c1cc(OC)c(OC)c(OC)c1)=C2Cl (stereo unspecified)	8.71 µM (inactive)	14.3 µM (inactive)	15.6 µM (inactive)	13.9 µM (inactive)	12.4 µM (inactive)	2.69 µM (inactive)	13.6 µM (inactive)	20.3 µM (inactive)	16.4 µM (inactive)	6.01 µM (inactive)	18.7 µM (inactive)	11 µM (inactive)	13.6 µM (inactive)	17.2 µM (inactive)	15.2 µM (inactive)					
C1CCC2(CC1)O[C@@H]1[C@@H](O2)[C@@H](O[C@H]2O[C@@H]3COC4(CCCCC4)O[C@H]3[C@@H]3OC4(CCCCC4)O[C@@H]23)O[C@@H]2COC3(CCCCC3)O[C@@H]12	36.6 µM (inactive)	> 100 µM (inactive)	> 100 µM (inactive)	> 100 µM (inactive)	> 100 µM (inactive)	> 100 µM (inactive)	> 100 µM (inactive)	> 100 µM (inactive)	> 100 µM (inactive)	> 100 µM (inactive)		> 100 µM (inactive)	11.4 µM (inactive)	> 100 µM (inactive)	> 100 µM (inactive)	> 100 µM (inactive)		> 100 µM (inactive)	> 100 µM (inactive)	> 100 µM (inactive)
c1ccc(/N=C2/SC3=Nc4cccc5cccc(c45)N3/C2=N/c2ccccc2)cc1	> 100 µM (inactive)	> 100 µM (inactive)	> 100 µM (inactive)	> 100 µM (inactive)	> 100 µM (inactive)	> 100 µM (inactive)			> 100 µM (inactive)	> 100 µM (inactive)	> 100 µM (inactive)	> 100 µM (inactive)	> 100 µM (inactive)	> 100 µM (inactive)	> 100 µM (inactive)	> 100 µM (inactive)	> 100 µM (inactive)			> 100 µM (inactive)
CSC1NC(c2ccccc2)=C(C#N)C(=O)N1C1OCC(OC(C)=O)C(OC(C)=O)C1OC(C)=O (stereo unspecified)	> 100 µM (inactive)	> 100 µM (inactive)	> 100 µM (inactive)	> 100 µM (inactive)	> 100 µM (inactive)	> 100 µM (inactive)	> 100 µM (inactive)	> 100 µM (inactive)	> 100 µM (inactive)	> 100 µM (inactive)	> 100 µM (inactive)	> 100 µM (inactive)		> 100 µM (inactive)	> 100 µM (inactive)	> 100 µM (inactive)	> 100 µM (inactive)	> 100 µM (inactive)	> 100 µM (inactive)	> 100 µM (inactive)
COc1ccc2c(C)cc(N/N=C/c3sccc3C)nc2c1	5.69 µM (inactive)	21.7 µM (inactive)	6.24 µM (inactive)	7.11 µM (inactive)		12.1 µM (inactive)	21.7 µM (inactive)	17.1 µM (inactive)	17.9 µM (inactive)	10.2 µM (inactive)	10 µM (inactive)	17.1 µM (inactive)	46.8 µM (inactive)	11.8 µM (inactive)	14.7 µM (inactive)	13.5 µM (inactive)	12.6 µM (inactive)	20.9 µM (inactive)	13.3 µM (inactive)	11.4 µM (inactive)
CCOC(=O)NC(=O)c1cn(CCSCCOC(=O)NCCCCCCNC(=O)OCCSCCn2cc(C(=O)NC(=O)OCC)c(=O)[nH]c2=O)c(=O)[nH]c1=O		> 100 µM (inactive)	> 100 µM (inactive)	> 100 µM (inactive)	> 100 µM (inactive)	> 100 µM (inactive)	> 100 µM (inactive)	> 100 µM (inactive)	> 100 µM (inactive)			> 100 µM (inactive)	> 100 µM (inactive)	> 100 µM (inactive)	> 100 µM (inactive)			> 100 µM (inactive)	> 100 µM (inactive)	
CCOC1=C2N=C(Cc3ccc(F)cc3)NC2C(=O)c2ccccc21 (stereo unspecified)	11.6 µM (inactive)				17.9 µM (inactive)	15.7 µM (inactive)	14 µM (inactive)	32.6 µM (inactive)	33 µM (inactive)	8.67 µM (inactive)		4.69 µM (inactive)	4.68 µM (inactive)	25.5 µM (inactive)		45.4 µM (inactive)	25.8 µM (inactive)			
NC1(C(=O)O)CCc2ccc(N(CCCl)CCCl)cc2C1 (stereo unspecified)	84.3 µM (inactive)	> 100 µM (inactive)	57.3 µM (inactive)	49.3 µM (inactive)	> 100 µM (inactive)	98.2 µM (inactive)			23.8 µM (inactive)	26.7 µM (inactive)	> 100 µM (inactive)	> 100 µM (inactive)	9.82 µM (inactive)		29.6 µM (inactive)	39.9 µM (inactive)	> 100 µM (inactive)	> 100 µM (inactive)	61.7 µM (inactive)	33.8 µM (inactive)
